Values of other authors, collected in patent US11575141B2 (Robert Bosch GmbH, priority 2020, dated 2023).
Where two headings read alike, the source gives them in different places.

| pKa values (pKa source in footnotes) (fourth pKa value listed) | pKa values (pKa source in footnotes) (third pKa value listed) | Structure (SMILES) | pKa values (pKa source in footnotes) (first pKa value listed) | pKa values (pKa source in footnotes) (second pKa value listed) |
| --- | --- | --- | --- | --- |
| 10.0 | 7.3 | O=P(O)(O)P(=O)(O)O [Example 2, Hypophosphoric acid] | 2.2 | 2.8 |
| – | – | O=P(O)(O)OP(=O)(O)OP(=O)(O)O [Example 5, Triphosphoric acid] | 0.89 ^3 | – |
| – | – | NP(=O)(O)O [Example 10, Phosphoramidate] | ~3.4 | ~8.3 |
| – | – | O=[PH](O)O [Example 14, Phosphonic acid] | 1.1-2.3 | 5.3-7.2 |
